PubChem BioAssay (NCI)
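Test compounds were applied to cells in 96-well plates for 48 hours at 5 doses. Here, GI50 denotes the concentration required for 50% inhibition of growth. TGI marks complete inhibition of growth.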

Tests used:
Assay in all cases: growth of human tumour cells (NCI), 48 h
UACC-257 melanoma = system: UACC-257 melanoma
HCT-116 colon = system: HCT-116 colon
SF-539 CNS = system: SF-539 CNS
SNB-75 CNS = system: SNB-75 CNS
SK-MEL-28 melanoma = system: SK-MEL-28 melanoma
SF-295 CNS = system: SF-295 CNS
T-47D breast = system: T-47D breast
HCT-15 colon = system: HCT-15 colon
MCF7 breast = system: MCF7 breast
HCC-2998 colon = system: HCC-2998 colon
EKVX NSCLC = system: EKVX NSCLC
NCI-H460 lung = system: NCI-H460 lung
TK-10 renal = system: TK-10 renal
CCRF-CEM leukemia = system: CCRF-CEM leukemia
SNB-19 CNS = system: SNB-19 CNS
K-562 leukemia = system: K-562 leukemia
OVCAR-8 ovarian = system: OVCAR-8 ovarian
A549 NSCLC = system: A549 NSCLC
MALME-3M melanoma = system: MALME-3M melanoma
RXF 393 renal = system: RXF 393 renal
UO-31 renal = system: UO-31 renal
NCI-H522 lung = system: NCI-H522 lung
M14 melanoma = system: M14 melanoma
SK-MEL-2 melanoma = system: SK-MEL-2 melanoma
MDA-MB-468 breast = system: MDA-MB-468 breast
MOLT-4 leukemia = system: MOLT-4 leukemia
IGROV1 ovarian = system: IGROV1 ovarian
HT29 colon = system: HT29 colon
SK-OV-3 ovarian = system: SK-OV-3 ovarian
A498 renal = system: A498 renal
KM12 colon = system: KM12 colon
786-0 renal = system: 786-0 renal
SK-MEL-5 melanoma = system: SK-MEL-5 melanoma
UACC-62 melanoma = system: UACC-62 melanoma
MDA-MB-231 breast = system: MDA-MB-231 breast
BT-549 breast = system: BT-549 breast
OVCAR-4 ovarian = system: OVCAR-4 ovarian
LOX IMVI melanoma = system: LOX IMVI melanoma
HOP-92 NSCLC = system: HOP-92 NSCLC
SF-268 CNS = system: SF-268 CNS
PC-3 prostate = system: PC-3 prostate
DU-145 prostate = system: DU-145 prostate
SN12C renal = system: SN12C renal
COLO 205 colon = system: COLO 205 colon
OVCAR-5 ovarian = system: OVCAR-5 ovarian
HS 578T breast = system: HS 578T breast
RPMI-8226 leukemia = system: RPMI-8226 leukemia
NCI-H23 lung = system: NCI-H23 lung
NCI-H226 lung = system: NCI-H226 lung
SR leukemia = system: SR leukemia
MDA-MB-435 = system: MDA-MB-435
U251 CNS = system: U251 CNS
ACHN renal = system: ACHN renal
OVCAR-3 ovarian = system: OVCAR-3 ovarian
HL-60(TB) leukemia = system: HL-60(TB) leukemia
HOP-62 NSCLC = system: HOP-62 NSCLC

Structure (SMILES): CN(C)C(=O)c1cc(-c2ccc3ncnc(N4CCc5cc(F)c(Cl)cc54)c3c2)cnc1N
- GI50 (UACC-257 melanoma): 0.198 µM
- TGI (UACC-257 melanoma): 3.92 µM
- GI50 (HCT-116 colon): 0.111 µM
- TGI (HCT-116 colon): 0.296 µM
- GI50 (SF-539 CNS): 0.135 µM
- TGI (SF-539 CNS): 0.7 µM
- GI50 (SNB-75 CNS): 0.023 µM
- TGI (SNB-75 CNS): 0.649 µM
- GI50 (SK-MEL-28 melanoma): 0.195 µM
- TGI (SK-MEL-28 melanoma): 5.18 µM
- GI50 (SF-295 CNS): 0.244 µM
- TGI (SF-295 CNS): 1.25 µM
- GI50 (T-47D breast): 0.0323 µM
- TGI (T-47D breast): 1.43 µM
- GI50 (HCT-15 colon): 0.127 µM
- TGI (HCT-15 colon): 1.42 µM
- GI50 (MCF7 breast): 0.0322 µM
- TGI (MCF7 breast): 1.31 µM
- GI50 (HCC-2998 colon): 0.165 µM
- TGI (HCC-2998 colon): 1.03 µM
- GI50 (EKVX NSCLC): 0.131 µM
- TGI (EKVX NSCLC): 0.741 µM
- GI50 (NCI-H460 lung): 0.161 µM
- TGI (NCI-H460 lung): > 37.3 µM
- GI50 (TK-10 renal): 0.137 µM
- TGI (TK-10 renal): 1.21 µM
- GI50 (CCRF-CEM leukemia): 0.137 µM
- GI50 (SNB-19 CNS): 0.276 µM
- TGI (SNB-19 CNS): 3.44 µM
- GI50 (K-562 leukemia): 0.281 µM
- TGI (K-562 leukemia): > 100 µM
- GI50 (OVCAR-8 ovarian): 0.216 µM
- TGI (OVCAR-8 ovarian): 7.5 µM
- GI50 (A549 NSCLC): 0.113 µM
- TGI (A549 NSCLC): 1.49 µM
- GI50 (MALME-3M melanoma): 0.0455 µM
- TGI (MALME-3M melanoma): 0.366 µM
- GI50 (RXF 393 renal): 0.0379 µM
- TGI (RXF 393 renal): 0.317 µM
- GI50 (UO-31 renal): 0.0321 µM
- TGI (UO-31 renal): 1.86 µM
- GI50 (NCI-H522 lung): 0.214 µM
- TGI (NCI-H522 lung): 1.51 µM
- GI50 (M14 melanoma): 0.277 µM
- GI50 (SK-MEL-2 melanoma): 0.191 µM
- TGI (SK-MEL-2 melanoma): 0.474 µM
- GI50 (MDA-MB-468 breast): 0.043 µM
- TGI (MDA-MB-468 breast): 0.178 µM
- GI50 (MOLT-4 leukemia): 0.0638 µM
- TGI (MOLT-4 leukemia): 3.95 µM
- GI50 (IGROV1 ovarian): 0.0301 µM
- TGI (IGROV1 ovarian): 0.161 µM
- GI50 (HT29 colon): 0.141 µM
- TGI (HT29 colon): 1.58 µM
- GI50 (SK-OV-3 ovarian): 0.316 µM
- TGI (SK-OV-3 ovarian): 1.75 µM
- GI50 (A498 renal): 0.127 µM
- TGI (A498 renal): 0.459 µM
- GI50 (KM12 colon): 0.243 µM
- TGI (KM12 colon): 2.07 µM
- GI50 (786-0 renal): 0.129 µM
- TGI (786-0 renal): 1.43 µM
- GI50 (SK-MEL-5 melanoma): 0.125 µM
- TGI (SK-MEL-5 melanoma): 0.276 µM
- GI50 (UACC-62 melanoma): 0.109 µM
- TGI (UACC-62 melanoma): 0.44 µM
- GI50 (MDA-MB-231 breast): 0.203 µM
- TGI (MDA-MB-231 breast): 1.52 µM
- GI50 (BT-549 breast): 0.0747 µM
- TGI (BT-549 breast): 0.437 µM
- GI50 (OVCAR-4 ovarian): 0.229 µM
- TGI (OVCAR-4 ovarian): 11.3 µM
- GI50 (LOX IMVI melanoma): 0.17 µM
- TGI (LOX IMVI melanoma): 1.17 µM
- GI50 (HOP-92 NSCLC): 0.144 µM
- TGI (HOP-92 NSCLC): 0.673 µM
- GI50 (SF-268 CNS): 0.149 µM
- TGI (SF-268 CNS): 4.27 µM
- GI50 (PC-3 prostate): 0.104 µM
- TGI (PC-3 prostate): 7.19 µM
- GI50 (DU-145 prostate): 0.095 µM
- TGI (DU-145 prostate): > 100 µM
- GI50 (SN12C renal): 0.0698 µM
- TGI (SN12C renal): 3.02 µM
- GI50 (COLO 205 colon): 0.225 µM
- TGI (COLO 205 colon): 0.54 µM
- GI50 (OVCAR-5 ovarian): 0.168 µM
- TGI (OVCAR-5 ovarian): 2.45 µM
- GI50 (HS 578T breast): 0.0309 µM
- TGI (HS 578T breast): 0.437 µM
- GI50 (RPMI-8226 leukemia): 0.0572 µM
- TGI (RPMI-8226 leukemia): 0.419 µM
- GI50 (NCI-H23 lung): 0.194 µM
- TGI (NCI-H23 lung): 2.86 µM
- GI50 (NCI-H226 lung): 0.131 µM
- TGI (NCI-H226 lung): 3.37 µM
- GI50 (SR leukemia): 0.0765 µM
- TGI (SR leukemia): 0.815 µM
- GI50 (MDA-MB-435): 0.187 µM
- TGI (MDA-MB-435): 3.18 µM
- GI50 (U251 CNS): 0.2 µM
- TGI (U251 CNS): 2.24 µM
- GI50 (ACHN renal): 0.217 µM
- TGI (ACHN renal): 3.22 µM
- GI50 (OVCAR-3 ovarian): 0.128 µM
- TGI (OVCAR-3 ovarian): 0.743 µM
- GI50 (HL-60(TB) leukemia): 0.0575 µM
- TGI (HL-60(TB) leukemia): 0.682 µM
- GI50 (HOP-62 NSCLC): 0.154 µM
- TGI (HOP-62 NSCLC): 2.31 µM
